Legend:
Format in all cases: functional
[1] = system: SF-268; test: Growth inhibition of human SF268 cells after 48 hrs by sulforhodamine B assay; conditions: SF-268, 48 h
[2] = system: NCI-H460; test: Growth inhibition of human NCI-H460 cells after 48 hrs by sulforhodamine B assay; conditions: NCI-H460, 48 h
[3] = system: MCF7; test: Growth inhibition of human MCF7 cells after 48 hrs by sulforhodamine B assay; conditions: MCF7, 48 h
[4] = system: Leishmania donovani; test: Antileishmanial activity against Leishmania donovani axenic amastigotes infected in human THP1 cells assessed as growth inhibition at 50 uM; conditions: THP-1, read-out: GI
[5] = system: THP-1; test: Growth inhibition of human THP1 cells after 48 hrs by sulforhodamine B assay; conditions: THP-1, 48 h

Row | SMILES | GI50 [2] [µM] | GI50 [3] [µM] | GI50 [5] [µM] | GI50 [1] [µM] | inhibition of growth at 50 µM [4] [%]
1 | N#CCC1=NN=C(c2ccc(Br)cc2)C(CC(=O)c2ccc(Br)cc2)O1 (stereo not given) | 22.1 | 30.4 | – | 16.9 | 48
2 | N#CCC1=NN=C(c2ccc([N+](=O)[O-])cc2)C(CC(=O)c2ccc([N+](=O)[O-])cc2)O1 (stereo not given) | 2.6 | 1.6 | 33 | 2 | 88
3 | N#CCC1=NN=C(c2ccc([N+](=O)[O-])cc2)C(CC(=O)c2ccc(Br)cc2)O1 (stereo not given) | 40 | 36 | – | 16.5 | 73
4 | N#CCC1=C(C#N)CC(c2ccc([N+](=O)[O-])cc2)=C(CC(=O)c2ccc(Br)cc2)O1 | 3.6 | 4.9 | 26 | 2.8 | 82
5 | N#CCC(=O)N/N=C(/CBr)c1ccc([N+](=O)[O-])cc1 | 10.3 | 18.4 | – | 14 | 35
6 | N#CCC(=O)N/N=C(/CBr)c1ccc(Br)cc1 | 10 | 40.6 | – | 12.8 | 20
7 | N#CCC1=NN=C(c2ccc(Br)cc2)C(Br)O1 (stereo not given) | 38.2 | 70.7 | – | 32 | 40
8 | N#CCC1=NN=C(c2ccc([N+](=O)[O-])cc2)C(Br)O1 (stereo not given) | 8.5 | 10.6 | 22 | 6.7 | 58
9 | N#CCC1=C(C#N)CC(c2ccc(Br)cc2)=C(CC(=O)c2ccc(Br)cc2)O1 | 10.4 | 12 | – | 8.2 | 60
10 | N#CCC1=NN=C(c2ccc(Br)cc2)C(CC(=O)c2ccc([N+](=O)[O-])cc2)O1 (stereo not given) | 23 | 32 | 20 | 18.5 | 60
11 | C[C@@H]1[C@H](O)[C@@H](C)/C=C/C=C/C=C/C=C/C=C/C=C/C=C/[C@H](O[C@@H]2O[C@H](C)[C@@H](O)[C@H](N)[C@@H]2O)C[C@@H]2O[C@](O)(C[C@@H](O)C[C@@H](O)[C@H](O)CC[C@@H](O)C[C@@H](O)CC(=O)O[C@H]1C)C[C@H](O)[C@H]2C(=O)O [AMPHOTERICIN B] | – | – | – | – | 95

Now from value to molecule, other results behind:

Row | GI50 [2] [µM] | GI50 [3] [µM] | GI50 [5] [µM] | SMILES | GI50 [1] [µM] | inhibition of growth at 50 µM [4] [%]
12 | 0.01 | 0.09 | 12.9 | N#CCC1=C(C#N)CC(c2ccc(Br)cc2)=C(CC(=O)c2ccc([N+](=O)[O-])cc2)O1 | 0.003 | 90
13 | 0.9 | 1.5 | – | N#CCC1=NN=C(c2ccc(Br)cc2)CO1 | 10.3 | 26
14 | 0.094 | – | – | COc1cccc2c1C(=O)c1c(O)c3c(c(O)c1C2=O)C[C@@](O)(C(=O)CO)C[C@@H]3O[C@H]1C[C@H](N)[C@H](O)[C@H](C)O1 [DOXORUBICIN] | 0.094 | –
15 | 0.08 | 0.03 | 10.2 | N#CCC1=C(C#N)CC(c2ccc([N+](=O)[O-])cc2)=C(CC(=O)c2ccc([N+](=O)[O-])cc2)O1 | 0.005 | 98
16 | 0.002 | 0.001 | – | N#CCC1=NN=C(c2ccc([N+](=O)[O-])cc2)CO1 | 1.8 | 44
